The assay addresses T1, SIRT7 protein (Homo sapiens, UniProt Q9NRC8).
T1 construct: purchased SignalChem S41-30H
T1 sequence (Q9NRC8 1-400): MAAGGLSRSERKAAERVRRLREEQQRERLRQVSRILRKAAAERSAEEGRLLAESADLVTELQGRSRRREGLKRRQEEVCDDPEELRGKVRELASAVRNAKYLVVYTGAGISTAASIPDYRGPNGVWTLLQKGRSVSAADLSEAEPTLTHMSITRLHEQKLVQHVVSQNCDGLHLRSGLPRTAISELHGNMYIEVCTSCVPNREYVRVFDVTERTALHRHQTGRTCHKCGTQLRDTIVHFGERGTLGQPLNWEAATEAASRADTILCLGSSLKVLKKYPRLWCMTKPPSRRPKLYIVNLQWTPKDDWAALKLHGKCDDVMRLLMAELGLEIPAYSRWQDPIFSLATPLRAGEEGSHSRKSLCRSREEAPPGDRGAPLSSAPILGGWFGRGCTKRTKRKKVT
Put plainly: SIRT Glo assay, inhibitory activity against Sirt7. The assay is classed as biochemical. The conditions noted are these: 10 μM compound. In short, it runs like this:
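Recombinant SIRT7 (20 ng per well) pre-incubated 30 min with compound in SIRT Glo buffer, then SIRT Glo substrate added for 1 h before luminescence reading. Background-subtracted signal expressed as % inhibition relative to no-compound control.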
`O=C(Nc1nc2ccccc2s1)c1ccc(CC2CCNCC2)cc1` [Compound 1-66, N-(benzo[d]thiazol-2-yl)-4-(piperidin-4-ylmethyl)benzamide] displayed an inhibition at 10 µM of 16%.

For `CCNC(=O)N1CCC(=Cc2ccc(C(=O)Nc3nc4ccccc4s3)cc2)CC1` [Compound 1-67, 4-(4-(benzo[d]thiazol-2-ylcarbamoyl)benzylidene)-N-ethylpiperidine-1-carboxamide], 10 µM produced 92% inhibition.

In turn, `O=C(Nc1nc2ccccc2s1)c1ccc(C=C2CCN(C(=O)Nc3ccccc3)CC2)cc1` [Compound 1-68, 4-(4-(benzo[d]thiazol-2-ylcarbamoyl)benzylidene)-N-phenylpiperidine-1-carboxamide] displayed an inhibition at 10 µM of 100%.

On to `CCNC(=O)N1CCC(Cc2ccc(C(=O)Nc3nc4ccccc4s3)cc2)CC1` [Compound 1-69, 4-(4-(benzo[d]thiazol-2-ylcarbamoyl)benzyl)-N-ethylpiperidine-1-carboxamide], for which 10 µM produced 100% inhibition.

In turn, `O=C(Nc1nc2ccccc2s1)c1ccc(CN2C[C@@H]3C[C@H]2CN3)cc1` [Compound 1-71, 4-(((1S,4S)-2,5-diazabicyclo[2.2.1]heptan-2-yl)methyl)-N-(benzo[d]thiazol-2-yl)benzamide] registered an inhibition at 10 µM of 23%.

Regarding `CCNC(=O)N1C[C@@H]2C[C@H]1CN2Cc1ccc(C(=O)Nc2nc3ccccc3s2)cc1` [Compound 1-72, (1S,4S)-5-(4-(benzo[d]thiazol-2-ylcarbamoyl)benzyl)-N-ethyl-2,5-diazabicyclo[2.2.1]heptane-2-carboxamide], the inhibition at 10 µM worked out at 40%.

Turning to `O=C(Nc1nc2ccccc2s1)c1ccc(CN2C[C@@H]3C[C@H]2CN3C(=O)Nc2ccccc2)cc1` [Compound 1-73, (1S,4S)-5-(4-(benzo[d]thiazol-2-ylcarbamoyl)benzyl)-N-phenyl-2,5-diazabicyclo[2.2.1]heptane-2-carboxamide], the inhibition at 10 µM worked out at 64%.

Compound `CC(C)(C)OC(=O)N1CC=C(c2ccc(C(=O)Nc3nc4ccccc4s3)cc2)CC1` [Compound 1-74, tert-butyl 4-(4-(benzo[d]thiazol-2-ylcarbamoyl)phenyl)-3,6-dihydropyridine-1-(2H)-carboxylate] displayed an inhibition at 10 µM of 10%.

In the case of `O=C(Nc1nc2ccccc2s1)c1ccc(C2=CCNCC2)cc1` [Compound 1-75, N-(benzo[d]thiazol-2-yl)-4-(1,2,3,6-tetrahydropyridin-4-yl)benzamide], at 10 µM the inhibition was 26%.

`O=C(Nc1nc2ccccc2s1)c1ccc(C2=CCN(C(=O)Nc3ccc(C(F)(F)F)cc3)CC2)cc1` [Compound 1-76] had an inhibition at 10 µM of 5%.

As to `O=C(Nc1nc2ccccc2s1)c1ccc(C2CCN(C(=O)Nc3ccc(C(F)(F)F)cc3)CC2)cc1` [Compound 1-77], the inhibition at 10 µM was 6%.

Turning to `CC(C)(C)OC(=O)N1CCC(=Cc2ccc(C(=O)Nc3nc4ccccc4s3)c(C(F)(F)F)c2)CC1` [Compound 1-78, tert-butyl 4-(4-(benzo[d]thiazol-2-ylcarbamoyl)-3-(trifluoromethyl)benzylidene)piperidine-1-carboxylate], the inhibition at 10 µM is 14%.

Regarding `O=C(Nc1nc2ccccc2s1)c1ccc(C=C2CCNCC2)cc1C(F)(F)F` [Compound 1-79, N-(benzo[d]thiazol-2-yl)-4-(piperidin-4-ylidenemethyl)-2-(trifluoromethyl)benzamide], the inhibition at 10 µM stood at 71%.

With `CCNC(=O)N1CCC(=Cc2ccc(C(=O)Nc3nc4ccccc4s3)c(C(F)(F)F)c2)CC1` [Compound 1-80, 4-(4-(benzo[d]thiazol-2-ylcarbamoyl)-3-(trifluoromethyl)benzylidene)-N-ethylpiperidine-1-carboxamide], testing at 10 µM gave an inhibition of 80%.

For `O=C(Nc1nc2ccccc2s1)c1ccc(C=C2CCN(C(=O)Nc3ccccc3)CC2)cc1C(F)(F)F` [Compound 1-81, 4-(4-(benzo[d]thiazol-2-ylcarbamoyl)-3-(trifluoromethyl)benzylidene)-N-phenylpiperidine-1-carboxamide], the inhibition at 10 µM is 32%.

Consider `CC(C)(C)OC(=O)N1CCC(Cc2ccc(C(=O)Nc3nc4ccccc4s3)c(C(F)(F)F)c2)CC1` [Compound 1-82, tert-butyl 4-(4-(benzo[d]thiazol-2-ylcarbamoyl)-3-(trifluoromethyl)benzyl)piperidine-1-carboxylate], for which the inhibition at 10 µM turned out to be 2%.

As to `O=C(Nc1nc2ccccc2s1)c1ccc(CC2CCNCC2)cc1C(F)(F)F` [Compound 1-83, N-(benzo[d]thiazol-2-yl)-4-(piperidin-4-ylmethyl)-2-(trifluoromethyl)benzamide], the inhibition at 10 µM was 42%.

Take `CCNC(=O)N1CCC(Cc2ccc(C(=O)Nc3nc4ccccc4s3)c(C(F)(F)F)c2)CC1` [Compound 1-84, 4-(4-(benzo[d]thiazol-2-ylcarbamoyl)-3-(trifluoromethyl)benzyl)-N-ethylpiperidine-1-carboxamide]: 10 µM produced 53% inhibition.

With `O=C(Nc1nc2ccccc2s1)c1ccc(CC2CCN(C(=O)Nc3ccccc3)CC2)cc1C(F)(F)F` [Compound 1-85, 4-(4-(benzo[d]thiazol-2-ylcarbamoyl)-3-(trifluoromethyl)benzyl)-N-phenylpiperidine-1-carboxamide], the inhibition at 10 µM stood at 28%.

With `CC(C)(C)OC(=O)N1CCC(=Cc2ccc(C(=O)Nc3nc4ccccc4s3)c(F)c2)CC1` [Compound 1-86, tert-butyl 4-(4-(benzo[d]thiazol-2-ylcarbamoyl)-3-fluorobenzylidene)piperidine-1-carboxylate], the inhibition at 10 µM worked out at 60%.

As to `O=C(Nc1nc2ccccc2s1)c1ccc(C=C2CCNCC2)cc1F` [Compound 1-87, N-(benzo[d]thiazol-2-yl)-2-fluoro-4-(piperidin-4-ylidenemethyl)benzamide], the inhibition at 10 µM came to 100%.

For `CCNC(=O)N1CCC(=Cc2ccc(C(=O)Nc3nc4ccccc4s3)c(F)c2)CC1` [Compound 1-88, 4-(4-(benzo[d]thiazol-2-ylcarbamoyl)-3-fluorobenzylidene)-N-ethylpiperidine-1-carboxamide], 10 µM produced 100% inhibition.

Compound `O=C(Nc1nc2ccccc2s1)c1ccc(C=C2CCN(C(=O)Nc3ccccc3)CC2)cc1F` [Compound 1-89, 4-(4-(benzo[d]thiazol-2-ylcarbamoyl)-3-fluorobenzylidene)-N-phenylpiperidine-1-carboxamide] displayed an inhibition at 10 µM of 97%.

`O=C(Nc1nc2ccccc2s1)c1ccc(C=C2CCN(S(=O)(=O)c3ccccc3)CC2)cc1F` [Compound 1-90, N-(benzo[d]thiazol-2-yl)-2-fluoro-4-((1-(phenylsulfonyl)piperidin-4-ylidene)methyl)benzamide] returned an inhibition at 10 µM of 27%.

The compound `CCS(=O)(=O)N1CCC(=Cc2ccc(C(=O)Nc3nc4ccccc4s3)c(F)c2)CC1` [Compound 1-91, N-(benzo[d]thiazol-2-yl)-4-((1-(ethylsulfonyl)piperidin-4-ylidene)methyl)-2-fluorobenzamide] gave an inhibition at 10 µM of 76%.

For the compound `O=C(Nc1nc2ccccc2s1)c1ccc(C=C2CCN(C(=O)c3ccccc3)CC2)cc1F` [Compound 1-92, N-(benzo[d]thiazol-2-yl)-4-((1-benzoylpiperidin-4-ylidene)methyl)-2-fluorobenzamide], the inhibition at 10 µM was determined as 97%.

In the case of `O=C(Nc1nc2ccccc2s1)c1ccc(C=C2CCN(C(=O)Nc3ccc(C(F)(F)F)cc3)CC2)cc1F` [Compound 1-93, 4-(4-(benzo[d]thiazol-2-ylcarbamoyl)-3-fluorobenzylidene)-N-(4-(trifluoromethyl)phenyl)piperidine-1-carboxamide], the inhibition at 10 µM was 70%.

`CC(C)NC(=O)N1CCC(=Cc2ccc(C(=O)Nc3nc4ccccc4s3)c(F)c2)CC1` [Compound 1-94, 4-(4-(benzo[d]thiazol-2-ylcarbamoyl)-3-fluorobenzylidene)-N-isopropylpiperidine-1-carboxamide]: the inhibition at 10 µM amounted to 98%.

Take `CC(C)(C)OC(=O)N1CCC(=Cc2ccc(C(=O)Nc3nc4ccccc4s3)cc2Cl)CC1` [Compound 1-95, tert-butyl 4-(4-(benzo[d]thiazol-2-ylcarbamoyl)-2-chlorobenzylidene)piperidine-1-carboxylate]: testing at 10 µM gave an inhibition of 34%.

In turn, `O=C(Nc1nc2ccccc2s1)c1ccc(C=C2CCNCC2)c(Cl)c1` [Compound 1-96, N-(benzo[d]thiazol-2-yl)-3-chloro-4-(piperidin-4-ylidenemethyl)benzamide] came in with an inhibition at 10 µM of 91%.

Turning to `CCNC(=O)N1CCC(=Cc2ccc(C(=O)Nc3nc4ccccc4s3)cc2Cl)CC1` [Compound 1-97, 4-(4-(benzo[d]thiazol-2-ylcarbamoyl)-2-chlorobenzylidene)-N-ethylpiperidine-1-carboxamide], at 10 µM the inhibition was 100%.

As for `CC(C)(C)OC(=O)N1CCC(=Cc2cc(F)c(C(=O)Nc3nc4ccccc4s3)c(F)c2)CC1` [Compound 1-98, tert-butyl 4-(4-(benzo[d]thiazol-2-ylcarbamoyl)-3,5-difluorobenzylidene)piperidine-1-carboxylate], the inhibition at 10 µM was 21%.

In turn, `O=C(Nc1nc2ccccc2s1)c1c(F)cc(C=C2CCNCC2)cc1F` [Compound 1-99, N-(benzo[d]thiazol-2-yl)-2,6-difluoro-4-(piperidin-4-ylidenemethyl)benzamide] registered an inhibition at 10 µM of 63%.

As for `CCNC(=O)N1CCC(=Cc2cc(F)c(C(=O)Nc3nc4ccccc4s3)c(F)c2)CC1` [Compound 1-100, 4-(4-(benzo[d]thiazol-2-ylcarbamoyl)-3,5-difluorobenzylidene)-N-ethylpiperidine-1-carboxamide], the inhibition at 10 µM was 96%.

The values are drawn from patent publication US20240116897A1, “BENZOTHIAZOLE AND BENZIMIDAZOLE DERIVATIVES, PHARMACEUTICALLY ACCEPTABLE SALT THEREOF, PREPARATION METHOD THEREFOR, AND PHARMACEUTICAL COMPOSITION COMPRISING SAME AS ACTIVE INGREDIENT” (KOREA RESEARCH INSTITUTE OF CHEMICAL TECHNOLOGY, priority 2021, published 2024).
